Key:
animals = assay: Feed supplementation for improving the fertility of animals (titration of the substance into the feed); format: in vivo
Text: It was found in our studies that phytohormones and beta-glucans appeared to work in a wide range of concentrations for improving the fertility of animals. The optimal concentrations may vary between different species, however, the skilled person will know how to obtain an optimal concentration for a given species, for instance by titration of the desired compound into the animal feed and testing when this would have the optimal effect. The following may serve as guidance in this process. A skilled person will appreciate that the amount of free IAA in the ready to use feed has to be adjusted in order to supply the animal with an effective amount of free IAA. In order to adjust the free IAA concentration in the feed so that a certain daily intake of free IAA is achieved, an estimate has to be made of the feed intake of an animal or animal group. A skilled person is aware of the feed intake of a particular (kind or group of) animal(s). Typically, the feed intake per day is between 0.5 and 10% of the body weight of the animal, with occasional exceptions as high as 20%. Elderly animals tend to eat less and are considered to have a feed intake per day between 0.1 and 5%, typically of 1% of their body mass. […] A particularly good source of such 1,3 and 1,6 beta glucans may be found in preparations of Agaricus blazei murill (ABM) or yeast cell walls. […] This corresponds to approximately 0.1 to 100 mg/kglw/day of 1,3 and 1,6 beta glucans. […] The effect of improving the fertility of animals was also observed when the feed of animals was supplemented with Gibberelin or Gibberellic acid.

humans = conditions: single doses of 0.1 g/kg body weight; cited from earlier work

**Q.** For `C=C1C[C@]23C[C@@]1(O)CC[C@H]2[C@@]12C=C[C@H](O)[C@@](C)(C(=O)O1)[C@H]2[C@@H]3C(=O)O` [Gibberellic acid], which fertility of animals (animals; between 0.01 and 0.1 mg/kglw/day, such as 0.04 mg/kglw/day) is on record?
**A.** The fertility of animals was “Optimal results”.

**Q.** What about the fertility of animals (animals; range of 0.004 and 0.4 mg/kglw/day) of the same molecule?
**A.** The fertility of animals was “particularly pronounced”.

**Q.** Which “toxicity of single doses” value (humans) does the source give for `O=C(O)Cc1c[nH]c2ccccc12` [free IAA, indole-3-acetic acid] here?
**A.** The value was “non-toxic”.

**Q.** What about the fertility of animals (animals; feed supplemented with free IAA instead of conjugated IAA) of the same molecule?
**A.** Its fertility of animals is “Particularly good results”.

**Q.** What about the fertility of animals (animals; feeding with 0.4 mg/kglw/day) of the same molecule?
**A.** Its fertility of animals is “very effective”.

**Q.** What about the fertility of animals (animals; provided in feed in the range of 0.004 and 40 mg/kglw/day) of the same molecule?
**A.** The fertility of animals was “improved”.

**Q.** Which fertility of animals (animals; fed with 1 to 10 mg/kglw/day) does the source give for 1,3 and 1,6 beta glucans here?
**A.** The fertility of animals was “Excellent results”.

Source: patent US8084440B2, “Method for improving the fertility of animals” (Desol B.V., priority 2005, dated 2011)
